# Where a SMILES comes first, the peptide text is derived from it. Bridges are numbered along the chain shown (N, C = ends).
# Columns and labels:
# KV4.1/K283D mutant = experiment: Whole-cell patch clamp, KV4.1/K283D in CHO-K1 cells; assay type: cell-based, mouse
# Method: (§1) The cDNA of hKV1.1, hKV1.3, rKV1.4, hKV1.5, rKV2.1, hKV3.1–3.4, mKV4.1, rKV4.2, and rKV4.3 were subcloned in the eukaryotic expression vector pCDNA3.1 or pCMV-blank. Channel mutants were made by a site-directed mutation method. Briefly, a pair of oppositely directed primers with 15 bp overlap at their 5′ ends and the designed mutation site were used to amplify the parental channel plasmid, then the PCR mix was treated with DpnI to remove the template. 10 μL digestion mix was directly used to transform 100 μL DH5α chemical competent cells. The correct mutation made by this procedure was finally confirmed by DNA sequencing. CHO-K1 cells (ATCC® CCL-61™) were grown in DMEM-F12 mixed medium (1:1) supplemented with 10% FBS and maintained in standard conditions (saturated humidity, 37°C, 5% CO2). Channel plasmid was co-transfected with pEGFP-N1 (encodes the green fluoresence protein) into CHO-K1 cells using lipofectamine 2000 following the manufacturer’s instructions. 4–6 h after transfection, cells were seeded onto poly-lysine (PLL) coated coverslips, and 24–36 h later, transfected cells were ready for patch-clamp analysis. It should be note that KV4.2 and its mutants were also co-expressed with hKChIP1 to promote their functional expressions.
# (§2) Whole-cell patch clamp recording was performed in an electrophysiology platform equipped with MultiClamp 700B amplifier and Axon Digidata 1550 AD/DA convertor (Axon Instruments, Irvine, CA, United States). Data were acquired using the pClamp software (Axon Instruments, Irvine, CA, United States). All experiments were performed at room temperature. The bath solution contains (in mM): 140 NaCl, 5 KCl, 1 MgCl2, 2 CaCl2, 10 glucose, and 10 HEPES (pH = 7.3). The pipette solution contains (in mM): 140 KCl, 2.5 MgCl2, 11 EGTA, and 10 HEPES (pH = 7.3). Series resistance was kept below 10 MΩ and compensated to 80%. The concentration–response curves were fitted by a Hill logistic equation to estimate the potency (IC50) of the toxin. The whole cell conductance (G) at each depolarizing voltage (V) was determined using the equation: G = I/(V−Vrev), where I and Vrev represents the current amplitude and the reversal potential, respectively. In the present study, Vrev for K^+ current is determined to be −85.61 mV using the Nernst equation. G-V curve was obtained by plotting the normalized G as a function of V and fitted by the Boltzmann equation: y = 1/{1 + exp [(Va−V)/K]}, in which Va, V, and K represents half-maximum activation voltage, test voltage and slope factor, respectively. The steady-state fast inactivation of KV4 channels was measured using a classical two-pulses protocol: cell was held at −120 mV, and a train of conditional voltages (−120–40 mV, in 10 mV increment, 1,000 ms) were applied to induce channel inactivation, followed by a +60 mV test pulse (300 ms) to assess the proportion of non-inactivated channels; the sweep interval was set to 10 s. Currents at the test pulse (I) were normalized to the maximum value (Imax) and plotted as a function of the conditional voltage (V), the curve was fitted by the Boltzmann equation: I/Imax = A + (1−A)/{1 + exp [(V−Vh)/K]}, where Vh is the half-maximum inactivation voltage, A represents the minimum channel availability, and K is the slope factor. Gating currents of KV4.1–4.3 channels were measured as previously reported ([Tilley et al., 2019]). Briefly, the ionic pore currents were abolished by replacing K^+ with NMDG^+ in the pipette solution, and 10 µM Cs^+ was present in the bath solution to occupy the selectivity filter of KV channels to prevent decay of the gating currents during recording.
# (§3) Data were presented as MEAN ± SEM, n represents the number of separate experimental cells. Data were analyzed using the software Clampfit 10.5 (Axon Instruments, Irvine, CA, United States), Graphpad Prism 5.01 (GraphPad Software, La Jolla, CA, United States) and Excel 2010 (Microsoft Corporation, Redmond, WA, United States). […]
# [1] = tested on: KV4.2/T282P mutant (T280P in text); experiment: Whole-cell patch clamp, KV4.2/T282P (text: KV4.2/T280P) (with hKChIP1) in CHO-K1 cells; assay type: cell-based, rat
# Method: as §1
# as §2, with “Currents at the test pulse (I) were normalized to the maximum value (Imax) and plotted as a function of the conditional voltage (V), the curve was fitted by the Boltzmann equation: I/Imax = A + (1−A)/{1 + exp [(V−Vh)/K]}, where Vh is the half-maximum inactivation voltage, A represents the minimum channel availability, and K is the slope factor.” left out, “Briefly, the ionic pore currents were abolished by replacing K^+ with NMDG^+ in the pipette solution, and 10 µM Cs^+ was present in the bath solution to occupy the selectivity filter of KV channels to prevent decay of the gating currents during recording.” left out
# as §3
# [2] = tested on: KV4.3 channel gating currents; experiment: Gating current recording, KV4.3; assay type: cell-based, rat
# Method: (§4) The cDNA of hKV1.1, hKV1.3, rKV1.4, hKV1.5, rKV2.1, hKV3.1–3.4, mKV4.1, rKV4.2, and rKV4.3 were subcloned in the eukaryotic expression vector pCDNA3.1 or pCMV-blank. Channel mutants were made by a site-directed mutation method. Briefly, a pair of oppositely directed primers with 15 bp overlap at their 5′ ends and the designed mutation site were used to amplify the parental channel plasmid, then the PCR mix was treated with DpnI to remove the template. 10 μL digestion mix was directly used to transform 100 μL DH5α chemical competent cells. The correct mutation made by this procedure was finally confirmed by DNA sequencing. […] 4–6 h after transfection, cells were seeded onto poly-lysine (PLL) coated coverslips, and 24–36 h later, transfected cells were ready for patch-clamp analysis. […]
# (§5) Whole-cell patch clamp recording was performed in an electrophysiology platform equipped with MultiClamp 700B amplifier and Axon Digidata 1550 AD/DA convertor (Axon Instruments, Irvine, CA, United States). […] The whole cell conductance (G) at each depolarizing voltage (V) was determined using the equation: G = I/(V−Vrev), where I and Vrev represents the current amplitude and the reversal potential, respectively. In the present study, Vrev for K^+ current is determined to be −85.61 mV using the Nernst equation. […] Gating currents of KV4.1–4.3 channels were measured as previously reported ([Tilley et al., 2019]). […]
# [3] = tested on: KV4.1/282TD (P282T/K283D double mutant); experiment: Whole-cell patch clamp, KV4.1/282TD in CHO-K1 cells; assay type: cell-based, mouse
# Method: as §1, §2, §3
# KV3.2 channel (hKV3.2) = experiment: Whole-cell patch clamp selectivity, KV3.2; assay type: cell-based, human; conditions: KV3.2, 10 µM, n = 5
# Method: as §4, §5
# KV3.3 channel (hKV3.3) = experiment: Whole-cell patch clamp selectivity, KV3.3; assay type: cell-based, human; conditions: KV3.3, 10 µM, n = 5
# Method: as §4, §5
# KV4.3/274LV/AA mutant = experiment: Whole-cell patch clamp, KV4.3/274LV/AA in CHO-K1 cells; assay type: cell-based, rat; conditions: KV4.3/274LV/AA at Va depolarizing voltage, n = 5–7
# Method: as §4, §5
# KV1.3 channel (hKV1.3) = experiment: Whole-cell patch clamp selectivity, KV1.3; assay type: cell-based, human; conditions: KV1.3, 10 µM, n = 5
# Method: as §4, §5
# [4] = tested on: KV4.2/280PK (T280P/D281K double mutant); experiment: Whole-cell patch clamp, KV4.2/280PK (with hKChIP1) in CHO-K1 cells; assay type: cell-based, rat
# Method: as §1, §2, §3
# [5] = tested on: KV4.2 channel gating currents; experiment: Gating current recording, KV4.2; assay type: cell-based, rat
# Method: as §4, §5
# [6] = 10 μM κ-LhTx-1, G-V, mean ± SEM, n = 5
# [7] = 10 μM κ-LhTx-1, two-pulse protocol, mean ± SEM, n = 5
# [8] = Va shift by 10 μM κ-LhTx-1 vs control, mean ± SEM
# [9] = Vh shift by 10 μM κ-LhTx-1 vs control, mean ± SEM
# [10] = 10 μM κ-LhTx-1, KV4.2/T282P, G-V, mean ± SEM, n = 5
# [11] = 10 μM κ-LhTx-1, KV4.2/T282P, two-pulse protocol, mean ± SEM, n = 5
# [12] = 10 μM κ-LhTx-1, G-V, mean ± SEM, n = 6
smiles,measurement,setting,value
"CC[C@H](C)[C@@H]1NC(=O)[C@H](CCC(N)=O)NC(=O)[C@@H]2CSSC[C@@H]3NC(=O)[C@H](CC(C)C)NC(=O)[C@H](CC(N)=O)NC(=O)[C@H](CCSC)NC(=O)[C@H](Cc4c[nH]c5ccccc45)NC(=O)[C@H](CO)NC(=O)[C@H](C)NC(=O)[C@@H](NC(=O)[C@H](CCC(=O)O)NC(=O)[C@H](CCC(N)=O)NC(=O)[C@H](C)NC(=O)[C@H](CC(=O)O)NC(=O)[C@@H](N)CCC(=O)O)CSSC[C@H](NC(=O)[C@H](CSSC[C@@H](C(=O)N[C@@H](CCCCN)C(=O)N[C@@H](Cc4ccc(O)cc4)C(=O)N[C@@H](CCCCN)C(=O)N[C@@H](CC(C)C)C(N)=O)NC(=O)[C@H](Cc4c[nH]c5ccccc45)NC1=O)NC(=O)[C@H](CCCCN)NC(=O)[C@H](CCCCN)NC(=O)[C@H](CCC(=O)O)NC(=O)CNC3=O)C(=O)N[C@@H](CCC(=O)O)C(=O)NCC(=O)N[C@@H](Cc1ccc(O)cc1)C(=O)N[C@@H](C(C)C)C(=O)N2 [κ-LhTx-1] (H-EDAQECASWMNLCGEKKCCEGYVCQIWCKYKL-NH2; disulfide 6-19, 13-24, 18-28 (inferred); N-terminus and C-terminus assumed)",∆Va and inhi%(min) vs wild-type KV4.1,KV4.1/K283D mutant; 10 μM,unchanged ∆Va and inhi%(min)
same,Va (steady-state activation),KV4.1/K283D mutant; [6],91.34 ± 3.47 mV
same,"k, slope factor (steady-state activation)",KV4.1/K283D mutant; [6],17.49 ± 1.57 mV
same,Vh (steady-state inactivation),KV4.1/K283D mutant; [7],-36.39 ± 3.03 mV
same,"k, slope factor (steady-state inactivation)",KV4.1/K283D mutant; [7],19.23 ± 1.48 mV
same,potency vs wild-type KV4.1,"KV4.1/K283D mutant; +30 mV, n = 5",only slightly reduced κ-LhTx-1 potency
same,∆Va (steady-state activation),KV4.1/K283D mutant; [8],103.10 ± 4.22 mV
same,∆Vh (steady-state inactivation),KV4.1/K283D mutant; [9],24.74 ± 3.63 mV
same,Va (steady-state activation),[1]; [10],16.93 ± 2.90 mV
same,"k, slope factor (steady-state activation)",[1]; [10],25.61 ± 0.68 mV
same,Vh (steady-state inactivation),[1]; [11],-71.72 ± 3.71 mV
same,"k, slope factor (steady-state inactivation)",[1]; [11],5.86 ± 0.21 mV
same,toxin inhibition,"[1]; KV4.2/T280P, 10 μM, all voltages, n = 5–6",resistant to toxin inhibition at all voltages
same,"inhibition of gating charge (Q) movement, 500 nM vs 10 µM","[2]; KV4.3, holding −100 mV, 20 ms to +30 mV, n = 5–6",inhibited essentially the same proportion of gating charge movement
same,gating current inhibition,"[2]; KV4.3, n = 5–6",inhibited the gating currents
same,Va (steady-state activation),[3]; [6],29.00 ± 0.52 mV
same,"k, slope factor (steady-state activation)",[3]; [6],25.50 ± 0.51 mV
same,Vh (steady-state inactivation),[3]; [7],-56.22 ± 2.80 mV
same,"k, slope factor (steady-state inactivation)",[3]; [7],5.95 ± 0.32 mV
same,inhi%(min),"[3]; 10 μM, +100 mV",approaching zero
same,∆Va (steady-state activation),[3]; [8],37.82 ± 2.83 mV
same,∆Vh (steady-state inactivation),[3]; [9],3.38 ± 3.15 mV
same,effect on currents,KV3.2 channel (hKV3.2),did not remarkably affect the currents
same,effect on currents,KV3.3 channel (hKV3.3),did not remarkably affect the currents
same,effect of mutation on toxin inhibition,KV4.3/274LV/AA mutant,profoundly weakened the effect
same,effect on currents,KV1.3 channel (hKV1.3),did not remarkably affect the currents
same,∆Va and inhi%(min) vs KV4.1,[4]; 10 μM,not significantly different from those in KV4.1
same,Va (steady-state activation),[4]; [12],82.17 ± 1.67 mV
same,"k, slope factor (steady-state activation)",[4]; [12],13.22 ± 1.15 mV
same,Vh (steady-state inactivation),[4]; [7],-9.93 ± 2.94 mV
same,"k, slope factor (steady-state inactivation)",[4]; [7],11.46 ± 1.10 mV
same,∆Va (steady-state activation),[4]; [8],102.8 ± 3.22 mV
same,∆Vh (steady-state inactivation),[4]; [9],43.66 ± 3.77 mV
same,"inhibition of gating charge (Q) movement, 500 nM vs 10 µM","[5]; KV4.2, holding −100 mV, 20 ms to +30 mV, n = 5–6",inhibited essentially the same proportion of gating charge movement
same,gating current inhibition,"[5]; KV4.2, n = 5–6",inhibited the gating currents
